Reference: patent US20220289746A1, “PYRROLIDINE DERIVATIVES” (Hoffmann-La Roche Inc., priority 2019, published 2022)

Experiments:
human M4 receptor [1] = target: T1, human M4 receptor (Homo sapiens, UniProt P08173); assay: cAMP assay for M4 positive allosteric modulators (M4 PAM cAMP assay); assay type: cell-based; parameters: expressed in transfected cells; host or cells: CHO-K1; settings: Table 1; CHO-K1 cells expressing human M4; forskolin 7.5 μM + acetylcholine EC20 (0.2 nM)
T1 sequence (P08173 1-479): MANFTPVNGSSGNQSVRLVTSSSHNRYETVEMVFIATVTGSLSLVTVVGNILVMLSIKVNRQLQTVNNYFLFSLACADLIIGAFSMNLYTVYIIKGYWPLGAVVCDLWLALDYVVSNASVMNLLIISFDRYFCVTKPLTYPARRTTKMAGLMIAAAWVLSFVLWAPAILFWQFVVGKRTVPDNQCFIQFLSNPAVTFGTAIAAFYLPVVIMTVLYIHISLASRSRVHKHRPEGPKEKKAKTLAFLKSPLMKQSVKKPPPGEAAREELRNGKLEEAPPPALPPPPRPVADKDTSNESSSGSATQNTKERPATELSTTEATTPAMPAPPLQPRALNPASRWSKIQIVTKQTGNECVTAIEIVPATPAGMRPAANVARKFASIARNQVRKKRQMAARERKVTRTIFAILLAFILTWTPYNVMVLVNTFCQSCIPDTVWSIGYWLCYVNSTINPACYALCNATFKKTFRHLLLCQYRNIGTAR
Protocol: The potency of M4 PAMs was determined using a cell-based cyclic adenosine monophosphate assay. The assay was performed with CHO-Kl cells stably expressing untagged human M4 receptor and cAMP was quantified using the Nano-TRF Detection Assay kit (Roche, Cat. No. 05214386) as described in the kit instructions. The cells were grown in Ham's F-12 Nutrient mix supplemented with 10% FBS and 200 μg/ml geneticin until they reached 80% confluency. The cells were washed with PBS, detached with accutase and resuspended in assay buffer consisting of HBSS and 0.1% BSA. They were then seeded in black 384-well plates (Corning, Cat. No. 3764) at a density of 20,000 cells/20 μl per well until the addition of compounds.
Test compounds were serially diluted 1:2 in 100% DMSO and spotted in 384-well plates at 0.5 μl/well. The compounds were then diluted in water containing IBMX (Sigma, Cat. No. 17018) and a sample (5 μl) was added to the cells for 15 minutes at 37° C./5% CO2. After this incubation the cells were stimulated with a combination of forskolin (7.5 μM) and acetylcholine EC20 (0.2 nM) in assay buffer for 30 minutes at 37° C./5% CO2. The assay was stopped by adding cAMP detection mix (15 μl/well, containing detergents for cell lysis) for one hour at RT.
The test plates were read using a SpectraMax i3x reader (Molecular Devices). The exported raw data was used to calculate the FRET signal based on the P-factor as per cAMP kit instructions. The data was normalized to the activity of acetylcholine plus forskolin, with 2 nM of acetylcholine plus 7.5 μM forskolin defined as 100% activity. Dose response curves were fitted to the percent activity data of the compounds using a sigmoidal dose response model (XLfit, IDBS) and the data were reported as EC50 and percent efficacy.

human M4 receptor [2] = target: T1, human M4 receptor; assay: Calcium flux assay using fluorescent imaging (M4 PAM FLIPR assay); assay type: cell-based; parameters: expressed in transfected cells; host or cells: CHO (monoclonal line, clone 2); settings: Table 1; CHO cells expressing human M4+Gqi5; acetylcholine EC20
Protocol: CHO cells were transfected with expression plasmid encoding the human M4 receptor and a Gqi5 construct to redirect Gi signaling to calcium. Stable cells were cloned by limiting dilution to yield a monoclonal cell line expressing human M4+Gqi5 (clone 2). The stable cells were grown in DMEM containing 10% FBS, 200 ug/ml Geneticin and 800 ug/ml Hygromycin at 37° C. in a 10% CO2 incubator at 95% humidity.
Calcium Flux Assay Using Fluorescent Imaging (“M4 PAM FLIPR” Assay)
On the afternoon before the assay, cells were plated at a density of 50,000 cells/well into black 96 well plates with clear bottoms to yield a confluent monolayer the next day. Hanks balanced salt solution, without phenol red, containing 20 mM HEPES (pH 7.3) and 2.5 mM probenecid (assay buffer) was prepared fresh for each experiment. Compound dilutions were made using a Beckman Biomek 2000 laboratory automation workstation, in assay buffer. The dye-loading buffer consisted of a final concentration of 2 μM Fluo-4-AM (dissolved in DMSO and pluronic acid) and 65 μg/ml amidoblack in assay buffer. The existing culture media was removed from the wells and 100 μl of the dye-loading buffer was added to each well and incubated for approximately 90 min at 37° C. in a 5% CO2 incubator at 95% humidity.
Calcium flux in the dye-loaded cells was measured with the fluorescence reader Hamamatsu FDSS 7000. To test compounds as agonists, compound addition (25 μl) was made 10 s into the fluorescent measurements and fluorescent response was recorded for 3 minutes. The fluorescence data was expressed as percentage of the fluorescence obtained by an EC100 concentration (3 μM) of the endogenous full agonist acetylcholine. Each test compound concentration-response curve was constructed using a four parameter logistic equation in Microsoft Excel XLFit as follows:
Y=Minimum+((Maximum−Minimum)/(1+10^(LogEC50−X)nH)).
The concentration of agonist that produced a half-maximal response is represented by the EC50 value. Maximum and minimum are the maximum and minimum fluorescence signal in % respectively. nH is the Hill slope.
To measure positive allosteric modulator activity 25 μl of an EC20 concentration of the endogenous agonist acetylcholine is added to the cells already pre-incubated with the test compound for 15 minutes.
The M4 PAM dose response is constructed using the agonist dose-response equation above. The concentration of PAM that produced a half-maximal response is represented by the EC50 value and the maximum signal measured is the PAM efficacy expressed in % of the EC100 (3 μM) acetylcholine response. • cAMP Assay for M4 Positive Allosteric Modulators (“M4 PAM cAMP” Assay)

SMILES | EC50 (human M4 receptor [1]) [nM] | EC50 (human M4 receptor [2]) [nM]
Cc1nc2c(c(C)c1Cl)CN(C(=O)[C@@H]1CCN(c3cccnn3)C1)C2 [Example 39, (3-chloro-2,4-dimethyl-5,7-dihydropyrrolo[3,4-b]pyridin-6-yl)-[(3R)-1-pyridazin-3-ylpyrrolidin-3-yl]methanone] | 2200 | 2520
Cc1ccc(N2CC[C@@H](C(=O)N3Cc4nc(C)c(Cl)c(C)c4C3)C2)nn1 [Example 40, (3-chloro-2,4-dimethyl-5,7-dihydropyrrolo[3,4-b]pyridin-6-yl)-[(3R)-1-(6-methylpyridazin-3-yl)pyrrolidin-3-yl]methanone] | 1990 | 1290
COc1cncc(N2CC[C@@H](C(=O)N3Cc4nc(C)c(Cl)c(C)c4C3)C2)n1 [Example 42, (3-chloro-2,4-dimethyl-5,7-dihydropyrrolo[3,4-b]pyridin-6-yl)-[(3R)-1-(6-methoxypyrazin-2-yl)pyrrolidin-3-yl]methanone] | 2080 | 577
Cc1nc2c(c(C)c1Cl)CN(C(=O)[C@@H]1CCN(c3cncc(C4CC4)n3)C1)C2 [Example 43, (3-chloro-2,4-dimethyl-5,7-dihydropyrrolo[3,4-b]pyridin-6-yl)-[(3R)-1-(6-cyclopropylpyrazin-2-yl)pyrrolidin-3-yl]methanone] | 7290 | 1210
Cc1nc2c(c(C)c1Cl)CN(C(=O)[C@@H]1CCN(c3cnc(C#N)cn3)C1)C2 [Example 44, 5-[(3R)-3-(3-chloro-2,4-dimethyl-5,7-dihydropyrrolo[3,4-b]pyridine-6-carbonyl)pyrrolidin-1-yl]pyrazine-2-carbonitrile] | 1280 | 1110
COc1cnc(N2CC[C@@H](C(=O)N3Cc4nc(C)c(Cl)c(C)c4C3)C2)cn1 [Example 45, (3-chloro-2,4-dimethyl-5,7-dihydropyrrolo[3,4-b]pyridin-6-yl)-[(3R)-1-(5-methoxypyrazin-2-yl)pyrrolidin-3-yl]methanone] | 1370 | 804
COc1ccnc(N2CC[C@@H](C(=O)N3Cc4nc(C)c(Cl)c(C)c4C3)C2)n1 [Example 48, (3-chloro-2,4-dimethyl-5,7-dihydropyrrolo[3,4-b]pyridin-6-yl)-[(3R)-1-(4-methoxypyrimidin-2-yl)pyrrolidin-3-yl]methanone] | 8130 | 2200
Cc1ccnc(N2CC[C@@H](C(=O)N3Cc4nc(C)c(Cl)c(C)c4C3)C2)n1 [Example 49, (3-chloro-2,4-dimethyl-5,7-dihydropyrrolo[3,4-b]pyridin-6-yl)-[(3R)-1-(4-methylpyrimidin-2-yl)pyrrolidin-3-yl]methanone] | 3350 | 1670

Now from value to compound:

EC50 (human M4 receptor [1]) [nM] | EC50 (human M4 receptor [2]) [nM] | SMILES
5120 | 2010 | Cc1nc2c(c(C)c1Cl)CN(C(=O)[C@@H]1CCN(c3ccc(C(F)(F)F)nn3)C1)C2 [Example 41, (3-chloro-2,4-dimethyl-5,7-dihydropyrrolo[3,4-b]pyridin-6-yl)-[(3R)-1-[6-(trifluoromethyl)pyridazin-3-yl]pyrrolidin-3-yl]methanone]
814 | 611 | Cc1cnc(N2CC[C@@H](C(=O)N3Cc4nc(C)c(Cl)c(C)c4C3)C2)cn1 [Example 46, (3-chloro-2,4-dimethyl-5,7-dihydropyrrolo[3,4-b]pyridin-6-yl)-[(3R)-1-(5-methylpyrazin-2-yl)pyrrolidin-3-yl]methanone]
1820 | 906 | Cc1nc2c(c(C)c1Cl)CN(C(=O)[C@@H]1CCN(c3cnc(C(F)(F)F)cn3)C1)C2 [Example 47, (3-chloro-2,4-dimethyl-5,7-dihydropyrrolo[3,4-b]pyridin-6-yl)-[(3R)-1-[5-(trifluoromethyl)pyrazin-2-yl]pyrrolidin-3-yl]methanone]
4380 | 1820 | Cc1nc2c(c(C)c1Cl)CN(C(=O)[C@@H]1CCN(c3nccc(C(F)(F)F)n3)C1)C2 [Example 50, (3-chloro-2,4-dimethyl-5,7-dihydropyrrolo[3,4-b]pyridin-6-yl)-[(3R)-1-[4-(trifluoromethyl)pyrimidin-2-yl]pyrrolidin-3-yl]methanone]
